From PMC11720011, “Single Disulfide Bond in Host Defense Thanatin Analog Peptides: Antimicrobial Activity, Atomic-Resolution Structures and Target Interactions” (International Journal of Molecular Sciences, 2024)
Values after ≈ are worked out from the molar mass of the structure shown. Residues, ends and D or L forms follow the SMILES beside them.

Tests used:
[1] = tested on: ATCC strains of E. coli, K. pneumoniae, S. enterica, S. pyogenes and E. faecalis; type: cell-based; conditions: 18 h
Protocol: (§1) Antibacterial activities of the VF16QK and VF16QK^Ser peptides (GL Biochem, Shanghai, China) were determined using the broth dilution method. Bacterial strains of Escherichia coli ATCC 25922 (EC); Salmonella enterica ATCC 14028 (SE); Klebsiella pneumoniae ATCC 13883 (KP); Acinetobacter baumannii ATCC BAA-1798 (AB) Streptococcus pyogenes ATCC 19615 (SP) and Enterococcus faecalis ATCC 29212 (EF) were used for this study.
(§2) Typically, overnight cultures of bacterial cells were grown to mid-log phase and diluted in 2X Mueller Hinton (MH) broth (Millipore-Sigma^TM, Saint Louis, MO, USA) to a final OD600 of 0.002. In a 96-well plate, 100 μL of the diluted bacterial solutions and 100 μL of the VF16QK and VF16QK^Ser peptides in concentrations ranging from 0.5 μM to 8 μM were incubated at 37 °C for 18 h.

[2] = tested on: Enterococcus faecalis ATCC 29212 (EF); type: cell-based; conditions: ATCC 29212, 18 h
Protocol: as §1, §2

[3] = tested on: Escherichia coli ATCC 25922 (EC); type: cell-based; conditions: ATCC 25922, 18 h
Protocol: as §1, §2

[4] = tested on: Klebsiella pneumoniae ATCC 13883 (KP); type: cell-based; conditions: ATCC 13883, 18 h
Protocol: as §1, §2

[5] = tested on: Streptococcus pyogenes ATCC 19615 (SP); type: cell-based; conditions: ATCC 19615, 18 h
Protocol: as §1, §2

[6] = target: T1, LptAm, the periplasmic LPS transport protein of E. coli (Escherichia coli, UniProt P0ADV1); experiment: Isothermal titration calorimetry (ITC) with LptAm; type: binding; conditions: in words
T1 construct: His-tagged LptAm (residues 28–159) of E. coli; His-tag; made in house; host or cells: E. coli BL21
Protocol: Figure 2 Isothermal titration calorimetry (ITC) of binding interactions of VF16QK with (A) LptAm, the periplasmic LPS transport protein of E. coli, and (B) the LPS-outer membrane. LptAm-peptide ITC studies were carried out in 50 mM of sodium phosphate buffer and 150 mM of NaCl at pH 7.0 and 25 °C. LptAm proteins in sample cells were titrated with 2 μL aliquots of peptides and the heat exchange was measured. For LPS–peptide interactions, LPS in sample cells were titrated with 2 μL aliquots of peptides in 10 mM of sodium phosphate buffer, pH 7.0, 37 °C.
The binding interactions of the thanatin peptides VF16QK and VF16QK^Ser with the LPS-outer membrane and LptAm were determined using ITC. LPS and peptide samples were prepared in 10 mM of sodium phosphate buffer, pH 7.0. Typically, twenty injections, or 2.0 μL of peptides (1 mM in syringe), were titrated into the sample cell containing LPS ([…]) at 37 °C with a stirring speed of 750 rpm. […] ITC data were analyzed following single site binding in Microcal origin 5.0 software to determine the association constant (Ka) and change of enthalpy (ΔH). The dissociation constant (Kd), change of free energy (ΔG) and change of entropy (TΔS) were calculated as: Kd = 1/Ka, ΔG = ΔH − TΔS, respectively. […]

[7] = tested on: LPS-outer membrane of E. coli cells; experiment: Outer membrane permeabilization assay (NPN fluorescence); type: cell-based; conditions: E. coli cells OD600 ~0.5, 10 mM sodium phosphate, peptide 1 to 16 µM, excitation 350 nm, emission 390–450 nm; in words
Protocol: (§3) Figure 1 (A) Fluorescence emission spectra of NPN as a function of concentrations of the VF16QK and VF16QK^ser peptides in E. coli cell solutions. 10 μM of fluorescence probes were prepared in 10 mM of sodium phosphate buffer with a fixed bacterial cell density of 0.5. Fluorescence spectra were recorded with an excitation wavelength of 350 nm and emission of 390–450 nm. (B) Plot showing z potential changes of E. coli cells as a function of concentrations, 2 to 32 μM, of the VF16QK and VF16QK peptides.
VF16QK and VF16QK^Ser were assessed for their ability to permeabilize the LPS-outer membrane of E. coli cells by use of the fluorescence probe 1-N-phenylnapthylamine (NPN). Bacterial cells were prepared from a mid-log culture in 10 mM of sodium phosphate with an adjusted OD600 ~ 0.5. A basal fluorescence of […] NPN in bacterial suspension, in absence of peptide, was measured followed by sequential additions of peptides from 1 to 16 µM. Fluorescence experiments were conducted in a Cary Eclipse spectrophotometer (Varian, Palo Alto, CA, USA) using a 0.1 cm quartz cuvette. An excitation wavelength of 350 nm and emission was recorded from 390–450 nm.

[8] = tested on: E. coli cells; experiment: Zeta potential measurements (surface charge neutralization); type: cell-based; conditions: 10 mM sodium phosphate pH 7, peptide up to 32 μM, three replicates, in words
Protocol: as §3
Zeta potential measurements were performed in a Zeta Sizer Nano ZS (Malvern Instruments, Worcestershire, UK) instrument equipped with a 633 nm He laser. Mid-log phase E. coli cultures were centrifuged at 5000 rpm for 10 min and prepared in 10 mM of sodium phosphate buffer, pH 7. Z potential values of bacterial cell suspension were obtained from 1 to 32 μM of the peptides in zeta cells with gold electrodes. For individual measurement, 100 runs were carried out and three replicates were performed.

[9] = target: T2, LptAm, truncated functional deletion variant of the periplasmic LPS transport protein LptA of E. coli (E. coli, UniProt P0ADV1 28-159); experiment: ITC; peptide (250 uM in syringe, 20 injections of 2 uL) titrated into LptAm in the sample cell (25 mM [sic]); 50 mM sodium phosphate, 150 mM NaCl, pH 7.0, 25 °C; single site binding fit; conditions: both partners purified
T2 construct: LptA of E. coli, residues 28-159 (LptAm); no removal of the His tag is told; also called His-tagged LptAm; source: E. coli BL21, purified (Ni-NTA, size-exclusion chromatography)
T2 sequence (looked up): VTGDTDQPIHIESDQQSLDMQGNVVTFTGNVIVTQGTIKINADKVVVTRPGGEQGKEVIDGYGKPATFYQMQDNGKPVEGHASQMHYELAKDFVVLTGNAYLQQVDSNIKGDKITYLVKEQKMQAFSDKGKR

CC[C@H](C)[C@H](NC(=O)[C@@H](NC(=O)[C@@H]1CCCN1C(=O)[C@@H](N)C(C)C)[C@@H](C)CC)C(=O)N[C@@H](Cc1ccc(O)cc1)C(=O)N[C@H]1CSSC[C@@H](C(=O)N[C@@H](CCCCN)C(=O)N[C@@H](CCCNC(=N)N)C(=O)N[C@@H](Cc2ccccc2)C(N)=O)NC(=O)[C@H](CCCCN)NC(=O)[C@@H](CCCCN)NC(=O)[C@H]([C@@H](C)O)NC(=O)[C@H](CCCNC(=N)N)NC(=O)[C@H](CCCNC(=N)N)NC(=O)[C@H](CC(N)=O)NC1=O [VF16QK] (HELM PEPTIDE1{V.P.I.I.Y.C.N.R.R.T.[dK].K.C.K.R.F.[am]}$PEPTIDE1,PEPTIDE1,6:R3-13:R3$$$V2.0)
MIC values over Gram-negative and Gram-positive bacterial strains [1]: 1 to 4 µM | MIC, EF [2]: 1 µM (≈ 2.02 µg/mL) | MIC, EC [3]: 1 to 4 µM | MIC, KP [4]: 1 to 2 µM | MIC, SP [5]: 1 µM (≈ 2.02 µg/mL)

CC[C@H](C)[C@H](NC(=O)[C@@H](NC(=O)[C@@H]1CCCN1C(=O)[C@@H](N)C(C)C)[C@@H](C)CC)C(=O)N[C@@H](Cc1ccc(O)cc1)C(=O)N[C@@H](CO)C(=O)N[C@@H](CC(N)=O)C(=O)N[C@@H](CCCNC(=N)N)C(=O)N[C@@H](CCCNC(=N)N)C(=O)N[C@H](C(=O)N[C@H](CCCCN)C(=O)N[C@@H](CCCCN)C(=O)N[C@@H](CO)C(=O)N[C@@H](CCCCN)C(=O)N[C@@H](CCCNC(=N)N)C(=O)N[C@@H](Cc1ccccc1)C(N)=O)[C@@H](C)O [VF16QK^Ser] (HELM PEPTIDE1{V.P.I.I.Y.S.N.R.R.T.[dK].K.S.K.R.F.[am]}$$$$V2.0; N-terminus and C-terminus assumed)
MIC values over Gram-negative and Gram-positive bacterial strains [1]: > 16 µM | nature of binding to LptAm (heat of exchange) [6]: endothermic binding | NPN fluorescence emission (LPS-outer membrane permeabilization) [7]: significantly diminished LPS-outer membrane permeabilization | neutralization of surface charge (zeta potential) [8]: less effective

B1: VF16QK, disulfide-bonded 16-residue thanatin analog peptide (peptide)
peptide: VPIIYCNRRTKKCKRF
HELM: PEPTIDE1{V.P.I.I.Y.C.N.R.R.T.[dK].K.C.K.R.F.[am]}$PEPTIDE1,PEPTIDE1,6:R3-13:R3$$$V2.0; N-terminus assumed
SMILES: CC[C@H](C)[C@H](NC(=O)[C@@H](NC(=O)[C@@H]1CCCN1C(=O)[C@@H](N)C(C)C)[C@@H](C)CC)C(=O)N[C@@H](Cc1ccc(O)cc1)C(=O)N[C@H]1CSSC[C@@H](C(=O)N[C@@H](CCCCN)C(=O)N[C@@H](CCCNC(=N)N)C(=O)N[C@@H](Cc2ccccc2)C(N)=O)NC(=O)[C@H](CCCCN)NC(=O)[C@@H](CCCCN)NC(=O)[C@H]([C@@H](C)O)NC(=O)[C@H](CCCNC(=N)N)NC(=O)[C@H](CCCNC(=N)N)NC(=O)[C@H](CC(N)=O)NC1=O
notes: Analog of thanatin of Podisus maculiventris (21 residues) without its five N-terminal residues; also called VK16QK; source: synthetic peptide; bought: GL Biochem, Shanghai
Kd [9]: 400 nM | dH [9]: -10.2 kcal/mol
